Data from ChEMBL document CHEMBL1129908, “ECD peptides inhibit in vitro fertilization in mice” (Bioorg Med Chem Lett, 1997).
Where a SMILES comes first, the peptide text is derived from it.

Species: Mus musculus
Test: Tested for inhibition of sperm-egg fusion in in vitro mouse fertilization assays
Format: functional

IC50: 250 µM
SMILES: CC(C)C[C@H](NC(=O)[C@H](CCCN=C(N)N)NC(=O)[C@@H](N)CS)C(=O)N[C@@H](C)C(=O)N[C@@H](CCC(N)=O)C(=O)N[C@@H](CC(=O)O)C(=O)N[C@@H](CCC(=O)O)C(=O)N[C@@H](C)C(=O)N[C@@H](CC(=O)O)C(=O)N[C@H](C(=O)N[C@H](C(=O)N[C@@H](CCC(=O)O)C(=O)N[C@@H](Cc1ccc(O)cc1)C(=O)N[C@@H](CS)C(=O)O)[C@@H](C)O)C(C)C (H-CRLAQDEADVTEYC-OH)
